Columns and labels:
Assay in all cases: relative viability (nuclei count vs DMSO), 5 days (fraction); higher = more cells survive
[1] = system: COR-L23
Method in brief: (§1)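 Lung cancer cell lines in 1536-well plates got either a single drug or a fixed anchor-drug dose together with five library-drug doses (not always all listed) in √10 steps, by pin tool, on the day after seeding. Nuclei were counted after 5 days, and relative viability is the treated-to-vehicle ratio of nuclei counts. Values are medians of duplicate plates.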

[2] = system: NCI-H358
Method in brief: as §1

[3] = system: BEN
Method in brief: as §1

[4] = system: NCI-H838
Method in brief: as §1

[5] = system: NCI-H2342
Method in brief: as §1

[6] = system: LOU-NH91
Method in brief: as §1

[7] = system: SK-LU-1
Method in brief: as §1

[8] = system: HCC-366
Method in brief: as §1

[9] = system: NCI-H1793
Method in brief: as §1

[10] = system: NCI-H441
Method in brief: as §1

[11] = system: NCI-H2023
Method in brief: as §1

[12] = system: NCI-H2085
Method in brief: as §1

[13] = system: CAL-12T
Method in brief: as §1

[14] = system: NCI-H1975
Method in brief: as §1

[15] = system: NCI-H1651
Method in brief: as §1

[16] = system: NCI-H1355
Method in brief: as §1

[17] = system: NCI-H1734
Method in brief: as §1

[18] = system: NCI-H460
Method in brief: as §1

[19] = system: NCI-H1650
Method in brief: as §1

[20] = system: LU99A
Method in brief: as §1

[21] = system: NCI-H1437
Method in brief: as §1

Cc1sc2c(c1C)C(c1ccc(Cl)cc1)=N[C@@H](CC(=O)OC(C)(C)C)c1nnc(C)n1-2 [JQ1] + O=C(c1cc(Cc2n[nH]c(=O)c3ccccc23)ccc1F)N1CCN(C(=O)C2CC2)CC1 [Olaparib] (partner 8 µM)
relative viability ([1]; first compound 0.04 µM): 0.357 | relative viability ([1]; first compound 0.1265 µM): 0.229 | relative viability ([1]; first compound 0.4 µM): 0.295 | relative viability ([1]; first compound 1.265 µM): 0.11 | relative viability ([1]; first compound 4 µM): 0.136 | relative viability ([2]; first compound 0.04 µM): 0.509 | relative viability ([2]; first compound 0.1265 µM): 0.58 | relative viability ([2]; first compound 0.4 µM): 0.604 | relative viability ([2]; first compound 1.265 µM): 0.406 | relative viability ([2]; first compound 4 µM): 0.37 | relative viability ([3]; first compound 0.04 µM): 1.02 | relative viability ([3]; first compound 0.1265 µM): 0.76 | relative viability ([3]; first compound 0.4 µM): 0.671 | relative viability ([3]; first compound 1.265 µM): 0.346 | relative viability ([3]; first compound 4 µM): 0.243 | relative viability ([4]; first compound 0.04 µM): 0.749 | relative viability ([4]; first compound 0.1265 µM): 0.327 | relative viability ([4]; first compound 0.4 µM): 0.395 | relative viability ([4]; first compound 1.265 µM): 0.237 | relative viability ([4]; first compound 4 µM): 0.174 | relative viability ([5]; first compound 0.04 µM): 0.5 | relative viability ([5]; first compound 0.1265 µM): 0.501 | relative viability ([5]; first compound 0.4 µM): 0.476 | relative viability ([5]; first compound 1.265 µM): 0.313 | relative viability ([5]; first compound 4 µM): 0.295 | relative viability ([6]; first compound 0.04 µM): 0.911 | relative viability ([6]; first compound 0.1265 µM): 0.769 | relative viability ([6]; first compound 0.4 µM): 0.647 | relative viability ([6]; first compound 1.265 µM): 0.488 | relative viability ([6]; first compound 4 µM): 0.421 | relative viability ([7]; first compound 0.04 µM): 0.452 | relative viability ([7]; first compound 0.1265 µM): 0.358 | relative viability ([7]; first compound 0.4 µM): 0.374 | relative viability ([7]; first compound 1.265 µM): 0.153 | relative viability ([7]; first compound 4 µM): 0.124 | relative viability ([8]; first compound 0.04 µM): 0.349 | relative viability ([8]; first compound 0.4 µM): 0.197 | relative viability ([8]; first compound 1.265 µM): 0.102 | relative viability ([8]; first compound 4 µM): 0.0747 | relative viability ([9]; first compound 0.04 µM): 0.882 | relative viability ([9]; first compound 0.1265 µM): 0.735 | relative viability ([9]; first compound 0.4 µM): 0.666 | relative viability ([9]; first compound 1.265 µM): 0.526 | relative viability ([9]; first compound 4 µM): 0.52 | relative viability ([10]; first compound 0.04 µM): 0.612 | relative viability ([10]; first compound 0.1265 µM): 0.523 | relative viability ([10]; first compound 0.4 µM): 0.256 | relative viability ([10]; first compound 1.265 µM): 0.17 | relative viability ([10]; first compound 4 µM): 0.17 | relative viability ([11]; first compound 0.04 µM): 0.442 | relative viability ([11]; first compound 0.1265 µM): 0.342 | relative viability ([11]; first compound 0.4 µM): 0.207 | relative viability ([11]; first compound 1.265 µM): 0.104 | relative viability ([11]; first compound 4 µM): 0.0832 | relative viability ([12]; first compound 0.04 µM): 0.781 | relative viability ([12]; first compound 0.1265 µM): 0.696 | relative viability ([12]; first compound 0.4 µM): 0.693 | relative viability ([12]; first compound 1.265 µM): 0.601 | relative viability ([12]; first compound 4 µM): 0.604 | relative viability ([13]; first compound 0.04 µM): 0.715 | relative viability ([13]; first compound 0.1265 µM): 0.823 | relative viability ([13]; first compound 0.4 µM): 0.595 | relative viability ([13]; first compound 1.265 µM): 0.34 | relative viability ([13]; first compound 4 µM): 0.272 | relative viability ([14]; first compound 0.04 µM): 0.747 | relative viability ([14]; first compound 0.1265 µM): 0.608 | relative viability ([14]; first compound 0.4 µM): 0.473 | relative viability ([14]; first compound 1.265 µM): 0.281 | relative viability ([14]; first compound 4 µM): 0.342 | relative viability ([15]; first compound 0.04 µM): 0.175 | relative viability ([15]; first compound 0.1265 µM): 0.173 | relative viability ([15]; first compound 0.4 µM): 0.151 | relative viability ([15]; first compound 1.265 µM): 0.132 | relative viability ([15]; first compound 4 µM): 0.136 | relative viability ([16]; first compound 0.04 µM): 0.626 | relative viability ([16]; first compound 0.1265 µM): 0.697 | relative viability ([16]; first compound 0.4 µM): 0.643 | relative viability ([16]; first compound 1.265 µM): 0.403 | relative viability ([16]; first compound 4 µM): 0.344 | relative viability ([17]; first compound 0.04 µM): 0.606 | relative viability ([17]; first compound 0.1265 µM): 0.556 | relative viability ([17]; first compound 0.4 µM): 0.563 | relative viability ([17]; first compound 1.265 µM): 0.47 | relative viability ([17]; first compound 4 µM): 0.349 | relative viability ([18]; first compound 0.04 µM): 0.43 | relative viability ([18]; first compound 0.1265 µM): 0.336 | relative viability ([18]; first compound 0.4 µM): 0.179 | relative viability ([18]; first compound 1.265 µM): 0.124 | relative viability ([18]; first compound 4 µM): 0.0676 | relative viability ([19]; first compound 0.04 µM): 0.725 | relative viability ([19]; first compound 0.1265 µM): 0.669 | relative viability ([19]; first compound 0.4 µM): 0.476 | relative viability ([19]; first compound 1.265 µM): 0.21 | relative viability ([19]; first compound 4 µM): 0.149 | relative viability ([20]; first compound 0.04 µM): 0.264 | relative viability ([20]; first compound 0.4 µM): 0.169 | relative viability ([20]; first compound 1.265 µM): 0.114 | relative viability ([20]; first compound 4 µM): 0.111 | relative viability ([21]; first compound 0.04 µM): 0.595 | relative viability ([21]; first compound 0.1265 µM): 0.572 | relative viability ([21]; first compound 0.4 µM): 0.519 | relative viability ([21]; first compound 1.265 µM): 0.29 | relative viability ([21]; first compound 4 µM): 0.279
